Assay results as given in US12648917B2 (University of Florida Research Foundation, Incorporated, priority 2017, dated 2026).
Entries after “also recorded” stand apart in the source; their conditions may differ.

Assays:
[1] = system: RAN protein translation; assay: RAN protein levels by protein blot in HEK293T cells transfected with repeat expansion constructs; format: cell-based; conditions: for RAN polyGP protein levels, dose dependence: HEK293T cells transiently transfected with G4C2 expansion constructs (FIG. 4)
From the text: . […] Protein blots were run on protein lysates from HEK293T cells transfected with various repeat expansion constructs shown in FIG. 1A. In FIG. 1B, the lanes labeled KMQ, show: RAN poly-Ser-Flag, RAN poly-Ala-HA, ATG initiated polyGln-Myc. In FIG. 1B, the lanes labeled KMQ has a methionine encoding ATG immediately 5′ to the CAG repeat expansion and located within the polyGln reading frame. The lanes labeled KKQ indicate the KKQ vector contains a CAG expansion without an AUG initiation codon, and indicates: RAN polySer-Flag, RAN polyAla-HA, RAN polyGln-Myc. These constructs contain epitope tags that are incorporated into the C-terminal regions of the ATG-initiated poly-Gln and non-ATG initiated RAN proteins (poly-Gln, poly-Leu-Pro-Ala-Cys and poly-Gly-Pro) which are expressed across these repeat expansions. The lane labeled CCTG expresses the following RAN proteins: RAN polyLPAC-Flag, RAN polyLPAC-HA, RAN polyLPAC-Myc. The lane labeled G4C2 is designed to detect the following RAN proteins: RAN polyGP-Flag, RAN polyGR-HA, RAN polyGA-Myc. […].
(§1) HEK293T cells were cultured in DMEM medium supplemented with 10% fetal bovine serum and incubated at 37° C. in a humid atmosphere containing 5% CO2. DNA transfections were performed using Lipofectamine 2000 Reagent (Invitrogen) according to the manufacturer's instructions.
(§2) Transfected cells in each well of a six-well tissue-culture plate were rinsed with PBS and lysed in 300 μL RIPA buffer with protease inhibitor cocktail for 45 min on ice. DNA was sheared by passage through a 21-gauge needle. The cell lysates were centrifuged at 16,000×g for 15 min at 4° C., and the supernatant was collected. The protein concentration of the cell lysate was determined using the protein assay dye reagent (Bio-Rad). Twenty micrograms of protein were separated in a 4-12% NuPAGE Bis-Tris gel (Invitrogen) and transferred to a nitrocellulose membrane (Amersham). The membrane was blocked in 5% dry milk in PBS containing 0.05% Tween-20 (PBS-T) and probed with the anti-Flag (1:2000), anti-Myc (1:1000), anti-HA (1:1000), or rabbit polyclonal antibodies (1:1000) in blocking solution. After the membrane was incubated with anti-rabbit or anti-mouse HRP-conjugated secondary antibody (Amersham), bands were visualized by the ECL plus Western Blotting Detection System (Amersham).
. Transient transfections of expansion constructs treated with or without metformin were performed. […]. […] Protein blots were run on protein lysates from HEK293T cells transfected with various repeat expansion constructs shown in FIG. 5A. In FIG. 5B, the lanes labeled KMQ, show: RAN poly-Ser-Flag, RAN poly-Ala-HA, ATG initiated polyGln-Myc. In FIG. 5B the lanes labeled KMQ has a methionine encoding ATG immediately 5′ to the CAG repeat expansion and located within the polyGln reading frame. The lanes labeled KKQ indicate the KKQ vector contains a CAG expansion without an AUG initiation codon, and indicates: RAN polySer-Flag, RAN polyAla-HA, RAN polyGln-Myc. These constructs contain epitope tags that are incorporated into the C-terminal regions of the ATG-initiated poly-Gln and non-ATG initiated RAN proteins (poly-Gln, poly-Leu-Pro-Ala-Cys and poly-Gly-Pro) which are expressed across these repeat expansions. The lane labeled CCTG expresses the following RAN proteins: RAN polyLPAC-Flag, RAN polyLPAC-HA, RAN polyLPAC-Myc. The lane labeled G4C2 is designed to detect the following RAN proteins: RAN polyGP-Flag, RAN polyGR-HA, RAN polyGA-Myc. […].

[2] = target: T1, PKR (Homo sapiens, UniProt P19525); assay: p-PKR (T446 and T451) levels by protein blot in HEK293T cells transfected with repeat expansion constructs; format: cell-based; conditions: for G4C2 repeat-expansion induced p-PKR (T446 and T451) levels, dose dependence: cells transfected with a G4C2 repeat expansion construct (FIG. 4)
T1 construct: endogenous in cells; host or cells: HEK293T
Description: as §1, §2
[…]. Transient transfections of expansion constructs treated with or without metformin were performed. […].

[3] = metformin 5 mg/ml in the drinking water; previously shown, comparable to human doses of 20 mg/kg/day; cited from earlier work
[4] = system: glycine-proline (GP) RAN protein; assay: GP RAN protein levels in leukocyte lysates from peripheral blood of a C9ORF72 expansion-positive subject; format: in vivo; conditions: single human subject with C9ORF72 repeat expansion, 500 or 1000 mg/day Metformin Hydrochloride Extended Release Tablets, 10 to 30 days after treatment
From the text: […]. […] […]. […] […]

[5] = system: glial fibrillary acidic protein (GFAP); assay: IHC staining for GFAP (neuroinflammation, reactive gliosis) in C9-BAC mice; format: in vivo, mouse
[6] = system: GA aggregates; assay: GA aggregates in retrosplenial cortex of C9-BAC mice; format: in vivo, mouse; conditions: for reduction in the number of GA aggregates compared to C9 controls: 5 mg/ml in drinking water
Description: (§3) In Group A animals, treatment began at 2 months of age, before the onset of overt behavioral or pathological phenotypes. In Group B, smaller cohorts of animals (n=8/group) were treated beginning at 6 months, an age at which behavioral phenotypes are evident. DigiGait analyses of Group A mice at 5 months identified eight DigiGait parameters that differed between untreated C9 and NT cohorts. […]. […] […].
Cancer Prev Res (Phila) 3, 1066-1076, doi: 10.1158/1940-6207. CAPR-10-0055 (2010)). In Group A animals, three months of treatment began at 2 months of age, before the onset of overt behavioral or pathological phenotypes. In Group B, smaller cohorts of animals were treated for four months beginning at 6 months, an age at which behavioral phenotypes are evident^12.

[7] = system: C9-BAC mice; assay: Open field analysis (center time) in C9-BAC mice; format: in vivo, mouse; conditions: Group A metformin-treated C9 mice compared to untreated C9 mice
Description: Open field analysis. Open field analysis was performed by testing mouse behavior during a 30 min session in a completely dark open chamber (17″×17″) (Med Associates). Approximately two hours before the start of analysis, mice were placed in the testing room to allow for acclimation to the room. Mice were then placed in the center of the darkened activity-monitoring chamber. The trace path and center time was recorded and analyzed with Activity Monitor (MED associates, Inc.) software.
as §3
DigiGait analyses of Group A mice at 5 months identified eight parameters that differed between untreated C9 and NT cohorts. […]. […]. […]

T1 sequence (P19525 whole entry): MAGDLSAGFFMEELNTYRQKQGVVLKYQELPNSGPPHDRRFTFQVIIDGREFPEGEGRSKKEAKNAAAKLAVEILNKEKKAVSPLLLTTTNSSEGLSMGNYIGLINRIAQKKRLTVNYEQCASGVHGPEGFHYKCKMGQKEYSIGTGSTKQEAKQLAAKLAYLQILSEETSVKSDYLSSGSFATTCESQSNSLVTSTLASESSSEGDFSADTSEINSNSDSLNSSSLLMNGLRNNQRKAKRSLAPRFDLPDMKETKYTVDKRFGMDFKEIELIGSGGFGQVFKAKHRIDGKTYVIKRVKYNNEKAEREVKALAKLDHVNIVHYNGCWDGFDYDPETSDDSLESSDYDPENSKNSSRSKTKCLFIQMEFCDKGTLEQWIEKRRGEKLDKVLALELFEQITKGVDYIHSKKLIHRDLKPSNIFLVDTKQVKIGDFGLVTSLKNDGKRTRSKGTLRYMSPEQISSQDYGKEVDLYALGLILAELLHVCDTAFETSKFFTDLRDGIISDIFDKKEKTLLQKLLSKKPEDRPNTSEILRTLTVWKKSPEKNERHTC

SMILES | RAN polyGP protein levels, dose dependence [1] | G4C2 repeat-expansion induced p-PKR (T446 and T451) levels, dose dependence [2] | RAN protein levels of poly-Ala ([1]; HEK293T cells transfected with CAG repeat expansion constructs, treated with metformin, protein blot) | RAN protein levels of poly-LPAC (all three reading frames) ([1]; HEK293T cells transfected with CCTG repeat expansion construct, treated with metformin, protein blot) | RAN protein levels of poly-GP ([1]; HEK293T cells transfected with G4C2 (GGGGCC) repeat expansion construct, treated with metformin, protein blot) | RAN protein levels / expression ([1]; HEK293T cells transiently transfected with CAG, CCTG, CAGG and G4C2 expansion constructs (FIG. 3A)) | plasma levels [3] [µM] | glycine-proline (GP) RAN protein levels compared to pretreatment levels [4] | GFAP staining / reactive gliosis compared to untreated C9 animals, in words ([5]; C9 metformin treated vs untreated C9 animals (Group A)) | reduction of GFAP staining compared to untreated C9 mice ([5]; Group A) [%] | reduction of GFAP staining compared to untreated C9 mice ([5]; Group B) [%] | reduction in the number of GA aggregates compared to C9 controls ([6]; Group A (treated from 2 months of age, 3 months), P=0.01) [%] | reduction in the number of GA aggregates compared to C9 controls ([6]; Group B (treated from 6 months of age), P=0.047) [%] | GA aggregates compared to untreated C9 controls, in words ([6]; metformin in drinking water, Group A and Group B) | open field center time (anxiety-like behavior) [7] | p-PKR (T446 and T451) levels / PKR phosphorylation ([2]; cells transfected with repeat expansion constructs, with or without metformin (FIG. 3B, FIG. 6A))
CCCCNC(=N)NC(=N)N [buformin] | reduce GP RAN protein levels in a dose-dependent manner | reduce levels of p-PKR | – | – | – | – | – | – | – | – | – | – | – | – | – | –
CN(C)C(=N)NC(=N)N [metformin] | reduce GP RAN protein levels in a dose-dependent manner | reduce levels of p-PKR | reduced; also recorded: decreases | reduced; also recorded: decreases | reduced; also recorded: decreases | decreases RAN protein levels; also recorded: reduces RAN protein expression | ~10 | Dose dependent reduction; also recorded: Dose-dependent reduction | significantly reduced; also recorded: decreased levels of reactive gliosis | 79 | 74 | 38 | 37 | decreased numbers of GA aggregates; also recorded: reduction in GA aggregates | increased center time; also recorded: normalization or increased center time; also recorded: normalized | decreases PKR phosphorylation; also recorded: reduces levels of p-PKR
[H]/N=C(/N)N/C(=N/[H])NCCc1ccccc1 [phenformin] | reduce GP RAN protein levels in a dose-dependent manner | reduce levels of p-PKR | – | – | – | – | – | – | – | – | – | – | – | – | – | –
